Measured values published in PubChem BioAssay AID248 (DTP/NCI, 2004).
Values joined by “and” are separate entries in the source; they are usually repeats but may differ in a detail not shown here. Identical values can stand only once. Inconclusive results and toxic doses are left out.

Test system: L1210 leukemia ip in BDF1 mice, survival T/C
Assay: NCI In Vivo Anticancer Drug Screen. Data for tumor model L1210 Leukemia (intraperitoneal) in B6D2F1 (BDF1) mice
Settings: endpoint: mean survival time, higher = longer survival
Outline: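 Tumor was transplanted into mice, which were then dosed with test compound or vehicle alone. Survival was recorded for each group, and the treated figure was expressed relative to the control figure.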

[1] = dose: 75.0 mg/kg/injection, schedule: Q01DX001 (ip), vehicle: saline
[2] = dose: 50.0 mg/kg/injection, schedule: Q01DX001 (ip), vehicle: saline
[3] = dose: 100.0 mg/kg/injection, schedule: Q01DX001 (ip), vehicle: saline
[4] = dose: 100.0 mg/kg/injection, schedule: Q04DX002 (ip), vehicle: Klucel (hydroxypropylcellulose) (HPC)
[5] = dose: 200.0 mg/kg/injection, schedule: Q04DX002 (ip), vehicle: Klucel (hydroxypropylcellulose) (HPC)
[6] = dose: 100.0 mg/kg/injection, schedule: Q01DX001 (ip), vehicle: other
[7] = dose: 200.0 mg/kg/injection, schedule: Q01DX001 (ip), vehicle: other
[8] = dose: 400.0 mg/kg/injection, schedule: Q01DX001 (ip), vehicle: other
[9] = dose: 50.0 mg/kg/injection, schedule: Q01DX009 (ip), vehicle: Klucel (hydroxypropylcellulose) (HPC)
[10] = dose: 100.0 mg/kg/injection, schedule: Q01DX009 (ip), vehicle: Klucel (hydroxypropylcellulose) (HPC)
[11] = dose: 100.0 mg/kg/injection, schedule: Q04DX003 (ip), vehicle: saline with Tween-80
[12] = dose: 200.0 mg/kg/injection, schedule: Q01DX009 (ip), vehicle: Klucel (hydroxypropylcellulose) (HPC)
[13] = dose: 200.0 mg/kg/injection, schedule: Q04DX003 (ip), vehicle: saline with Tween-80
[14] = dose: 400.0 mg/kg/injection, schedule: Q04DX003 (ip), vehicle: saline with Tween-80
[15] = dose: 50.0 mg/kg/injection, schedule: Q01DX009 (ip), vehicle: saline
[16] = dose: 100.0 mg/kg/injection, schedule: Q01DX009 (ip), vehicle: saline
[17] = dose: 400.0 mg/kg/injection, schedule: Q04DX002 (ip), vehicle: Klucel (hydroxypropylcellulose) (HPC)
[18] = dose: 400.0 mg/kg/injection, schedule: Q01DX009 (ip), vehicle: Klucel (hydroxypropylcellulose) (HPC)
[19] = dose: 50.0 mg/kg/injection, schedule: Q01DX009 (ip), vehicle: saline with Tween-80
[20] = dose: 50.0 mg/kg/injection, schedule: Q04DX003 (ip), vehicle: saline with Tween-80
[21] = dose: 100.0 mg/kg/injection, schedule: Q01DX009 (ip), vehicle: saline with Tween-80
[22] = dose: 200.0 mg/kg/injection, schedule: Q01DX009 (ip), vehicle: saline with Tween-80

In the case of `CN(C)c1ccc(/C=C\c2cc(/C=C/c3ccc(N(C)C)cc3)c([N+](=O)[O-])cc2[N+](=O)[O-])cc1`, the T/C [1] was 98 % of control and 89 % of control, the T/C (dose: 150.0 mg/kg/injection, schedule: Q01DX001 (ip), vehicle: saline) was 86 % of control and the T/C (dose: 300.0 mg/kg/injection, schedule: Q01DX001 (ip), vehicle: saline) was 95 % of control and 101 % of control.

`ClCc1cccc2c(CCl)cccc12` was tested, and the T/C [2] was 101 % of control and the T/C [3] was 101 % of control.

In the case of `C[N+]1(C)CCS(=O)(=O)CC1`, the T/C [4] was 104 % of control and the T/C [5] was 110 % of control.

With `Clc1ccc(Cl)c2c(Br)cncc12` the T/C [6] was 98 % of control, the T/C [7] was 98 % of control and the T/C [8] was 93 % of control.

With `C[N+](C)(CCl)C1CCCCC1` the T/C [1] was 107 % of control.

In the case of `CCC(C(=O)OC)C(=O)c1ccccc1` (stereo unspecified), the T/C [2] was 107 % of control, the T/C [3] was 102 % of control and the T/C (dose: 200.0 mg/kg/injection, schedule: Q01DX001 (ip), vehicle: saline) was 107 % of control. For the same compound, the T/C (dose: 400.0 mg/kg/injection, schedule: Q01DX001 (ip), vehicle: saline) was 96 % of control.

For `O=C(O)c1cc(Cl)ccc1Br`, the T/C [9] was 104 % of control, the T/C [10] was 100 % of control and the T/C [11] was 100 % of control. For the same compound, the T/C [12] was 105 % of control, the T/C [13] was 104 % of control and the T/C [14] was 94 % of control.

`CN=NNc1ccccc1` was tested, and the T/C (dose: 12.0 mg/kg/injection, schedule: Q01DX009 (ip), vehicle: saline) was 114 % of control, the T/C (dose: 12.5 mg/kg/injection, schedule: Q01DX009 (ip), vehicle: Klucel (hydroxypropylcellulose) (HPC)) was 100 % of control and the T/C (dose: 18.0 mg/kg/injection, schedule: Q01DX009 (ip), vehicle: saline) was 118 % of control. The T/C (dose: 25.0 mg/kg/injection, schedule: Q01DX009 (ip), vehicle: Klucel (hydroxypropylcellulose) (HPC)) was 97 % of control, the T/C [9] was 102 % of control and the T/C (dose: 75.0 mg/kg/injection, schedule: Q04DX003 (ip), vehicle: saline with Tween-80) was 113 % of control. For the same compound, the T/C [10] was 156 % of control, the T/C [11] was 121 % of control and the T/C (dose: 150.0 mg/kg/injection, schedule: Q04DX003 (ip), vehicle: saline with Tween-80) was 164 % of control. For the same compound, the T/C (dose: 337.0 mg/kg/injection, schedule: Q04DX003 (ip), vehicle: saline with Tween-80) was 153 % of control.

For `CCCCC(CC)COP(=O)(CC(CC)CCCC)OCC(CC)CCCC` (stereo unspecified), the T/C [15] was 111 % of control and the T/C [16] was 107 % of control.

With `Nc1nc(O)c2[nH]c(N=Nc3ccc(-c4ccc(N=Nc5nc6nc(N)nc(O)c6[nH]5)cc4)cc3)nc2n1` the T/C (dose: 100.0 mg/kg/injection, schedule: Q04DX003 (ip), vehicle: Klucel (hydroxypropylcellulose) (HPC)) was 98 % of control, the T/C (dose: 200.0 mg/kg/injection, schedule: Q04DX003 (ip), vehicle: Klucel (hydroxypropylcellulose) (HPC)) was 93 % of control and the T/C (dose: 400.0 mg/kg/injection, schedule: Q04DX003 (ip), vehicle: Klucel (hydroxypropylcellulose) (HPC)) was 88 % of control.

In the case of `CN(C)CCCNc1nc(Cl)nc(Cl)n1`, the T/C [15] was 96 % of control, the T/C [16] was 92 % of control and the T/C (dose: 200.0 mg/kg/injection, schedule: Q01DX009 (ip), vehicle: saline) was 96 % of control.

In the case of `Cc1c(C)c(C)c(CN2CC(=O)c3ccccc3C2=O)c(C)c1C`, the T/C [4] was 89 % of control, the T/C [5] was 104 % of control and the T/C [17] was 89 % of control.

In the case of `CCCCCCCCCCCCCC(=O)OCC(OC(=O)CCCCCCCCCCCCC)C(OC(=O)CCCCCCCCCCCCC)C(OC(=O)CCCCCCCCCCCCC)C(C=O)OC(=O)CCCCCCCCCCCCC` (stereo unspecified), the T/C [6] was 90 % of control, the T/C [7] was 97 % of control and the T/C [8] was 92 % of control.

`Cc1cccc2c(Cl)c3cccc(C)c3nc12` was tested, and the T/C [10] was 96 % of control, the T/C (dose: 100.0 mg/kg/injection, schedule: Q04DX003 (ip), vehicle: other) was 95 % of control and the T/C [12] was 93 % of control. For the same compound, the T/C (dose: 200.0 mg/kg/injection, schedule: Q04DX003 (ip), vehicle: other) was 94 % of control, the T/C [18] was 102 % of control and the T/C (dose: 400.0 mg/kg/injection, schedule: Q04DX003 (ip), vehicle: other) was 97 % of control.

For `CCNc1nc(Cl)nc(C(Cl)(Cl)Cl)c1Cl` (tested in a mixture with another compound), the T/C [4] was 104 % of control, the T/C [5] was 96 % of control and the T/C [17] was 100 % of control.

`C=CCOc1ccccn1` was tested, and the T/C [19] was 98 % of control, the T/C [20] was 105 % of control and the T/C [21] was 104 % of control. The T/C [11] was 98 % of control, the T/C [22] was 98 % of control and the T/C [13] was 102 % of control.

For `CN(C)N=C1CCC(=NN(C)C)CC1`, the T/C (dose: 12.5 mg/kg/injection, schedule: Q04DX003 (ip), vehicle: saline) was 100 % of control, the T/C (dose: 25.0 mg/kg/injection, schedule: Q04DX003 (ip), vehicle: saline) was 100 % of control and the T/C (dose: 50.0 mg/kg/injection, schedule: Q04DX003 (ip), vehicle: saline) was 94 % of control. The T/C (dose: 100.0 mg/kg/injection, schedule: Q04DX003 (ip), vehicle: saline) was 100 % of control and the T/C (dose: 200.0 mg/kg/injection, schedule: Q04DX003 (ip), vehicle: saline) was 99 % of control.

For `CC(C)(C)CC(CC(C)(C)C)C(=O)O`, the T/C (dose: 106.0 mg/kg/injection, schedule: Q01DX Z (ip), vehicle: other) was 94 % of control, the T/C (dose: 160.0 mg/kg/injection, schedule: Q01DX Z (ip), vehicle: other) was 102 % of control and the T/C (dose: 240.0 mg/kg/injection, schedule: Q01DX Z (ip), vehicle: other) was 96 % of control and 103 % of control. For the same compound, the T/C (dose: 360.0 mg/kg/injection, schedule: Q01DX Z (ip), vehicle: other) was 101 % of control and 89 % of control and the T/C (dose: 540.0 mg/kg/injection, schedule: Q01DX Z (ip), vehicle: other) was 86 % of control.

For `COc1ccc(C)cc1NC(=O)NNC(=O)c1ccc(Cl)cc1`, the T/C [19] was 98 % of control, the T/C [21] was 98 % of control and the T/C [22] was 98 % of control.

With `CC(=O)Nc1ccc(NC(=O)c2ccc([As](O)O)cc2)cc1` the T/C (dose: 25.0 mg/kg/injection, schedule: Q01DX001 (ip), vehicle: carboxymethylcellulose (CMC)) was 100 % of control, the T/C (dose: 50.0 mg/kg/injection, schedule: Q01DX001 (ip), vehicle: carboxymethylcellulose (CMC)) was 102 % of control and the T/C (dose: 100.0 mg/kg/injection, schedule: Q01DX001 (ip), vehicle: carboxymethylcellulose (CMC)) was 107 % of control. For the same compound, the T/C (dose: 200.0 mg/kg/injection, schedule: Q01DX001 (ip), vehicle: carboxymethylcellulose (CMC)) was 113 % of control.

In the case of `O=C(OC12CCN(CC1)CC2)c1ccccc1`, the T/C (dose: 9.5 mg/kg/injection, schedule: Q01DX001 (ip), vehicle: saline) was 95 % of control and the T/C (dose: 19.0 mg/kg/injection, schedule: Q01DX001 (ip), vehicle: saline) was 95 % of control.

With `CC/C=C(\CCC)CCCC` the T/C (dose: 100.0 mg/kg/injection, schedule: Q04DX002 (ip), vehicle: saline with Tween-80) was 94 % of control, the T/C (dose: 200.0 mg/kg/injection, schedule: Q04DX002 (ip), vehicle: saline with Tween-80) was 97 % of control and the T/C (dose: 400.0 mg/kg/injection, schedule: Q04DX002 (ip), vehicle: saline with Tween-80) was 94 % of control.

For `Cc1cc(C)c(S(=O)(=O)Nc2ccccc2F)c(C)c1`, the T/C [10] was 98 % of control, the T/C [12] was 110 % of control and the T/C [18] was 93 % of control.

`CCCCC(CC)CCC(O)CC` (stereo unspecified) was tested, and the T/C [21] was 98 % of control, the T/C [11] was 98 % of control and the T/C [22] was 101 % of control. The T/C [13] was 95 % of control, the T/C (dose: 400.0 mg/kg/injection, schedule: Q01DX009 (ip), vehicle: saline with Tween-80) was 97 % of control and the T/C [14] was 98 % of control.

In the case of `Cc1ccc(SCCn2cnc3c(ncn3Cc3ccccc3)c2=S)cc1`, the T/C [11] was 96 % of control, the T/C [13] was 109 % of control and the T/C [14] was 101 % of control.

In the case of `CCOc1ccc(Nc2cc([N+](=O)[O-])ccc2C(=O)O)cc1`, the T/C (dose: 25.0 mg/kg/injection, schedule: Q04DX003 (ip), vehicle: saline with Tween-80) was 101 % of control, the T/C [19] was 103 % of control and the T/C [20] was 95 % of control. For the same compound, the T/C [21] was 109 % of control, the T/C [11] was 107 % of control and the T/C [22] was 98 % of control. The T/C [13] was 93 % of control.
